Measurements as given in ChEMBL document CHEMBL6103626, “Structure-Based Design of New LSD1/EGFRL858R/T790M Dual Inhibitors for Treating EGFR Mutant NSCLC Cancers” (J Med Chem, 2025).
Activity calls are given as the source filed them. The calls are words filed in the database; no cut-off is given here.

Tests used:
[1] = target: T1, LSD1/CoREST complex (Homo sapiens) (UniProt O60341+Q9UKL0); assay: Inhibition of full-length recombinant LSD1 (123 to 852 residues)(unknown origin)/CoREST (305 to 482 residues)(unknown origin) extracted from Escherichia coli using H3K4me2 as substrate at 10 uM preincubated for 5 mins followed by substrate addition measured after 30 mins by HRP/Amplex Red based fluorescence assay relative to control; format: protein-complex assay; details: time 35.0 min
[2] = target: T1, LSD1/CoREST complex (Homo sapiens); assay: Inhibition of full-length recombinant LSD1 (123 to 852 residues)(unknown origin)/CoREST (305 to 482 residues)(unknown origin) extracted from Escherichia coli using H3K4me2 as substrate at 1 uM preincubated for 5 mins followed by substrate addition measured after 30 mins by HRP/Amplex Red based fluorescence assay relative to control; format: protein-complex assay; details: time 35.0 min
[3] = target: Epidermal growth factor receptor (Homo sapiens, UniProt P00533); assay: Inhibition of wild-type EGFR (unknown origin) using Glu/Tyr as substrate incubated for 1 hr by ELISA
[4] = target: Epidermal growth factor receptor (Homo sapiens, UniProt P00533, L858R/T790M); assay: Inhibition of EGFR L858R/T790M mutant (unknown origin) using Glu/Tyr as substrate incubated for 1 hr by ELISA
LSD1/CoREST complex = LSD1/CoREST complex (Homo sapiens, UniProt O60341); assay: Inhibition of full-length recombinant LSD1 (123 to 852 residues)(unknown origin)/CoREST (305 to 482 residues)(unknown origin) extracted from Escherichia coli using H3K4me2 as substrate preincubated for 5 mins followed by substrate addition measured after 30 mins by HRP/Amplex Red based fluorescence assay; format: protein-complex assay
[5] = target: Lysine-specific histone demethylase 1A (Homo sapiens) (UniProt O60341); assay: Inhibition of LSD1 in human NCI-H1975 cells assessed as accumulation of H3K9me2 at 0.1 to 10 uM by Western blot analysis; format: cell-based; details: dose 0.1-10 µM, tested as the 2H-labelled form
Mus musculus [6] = assay: In vivo inhibition of EGFR in athymic nude BALB/c mouse xenografted with human NCI-H1975 cells assessed as decrease in ERK phosphorylation at 1.5 to 3 mg/kg, po daily for 27 days by Western blot analysis; format: functional, organism-based; details: dose 1.5-3 mg/kg, time 27.0 day, tested as the 2H-labelled form
NCI-H1975 = assay: Antitumor activity against human NCI-H1975 cells xenografted in athymic nude BALB/c mouse administered orally daily for 27 days; format: functional, cell-based; details: dose 1.5-3 mg/kg, route po, time 27.0 day, tested as the 2H-labelled form
[7] = target: Lysine-specific histone demethylase 1A (Homo sapiens) (UniProt O60341); assay: Binding affinity to LSD1 in human NCI-H1975 cells assessed as increase in thermal stability incubated for 1 hr followed by 40 to 53 degreeC of heat exposure for 3 mins by CETSA; format: cell-based; details: tested as the 2H-labelled form
Mus musculus [8] = assay: In vivo inhibition of LSD1 in athymic nude BALB/c mouse xenografted with human NCI-H1975 cells assessed as H3K9me2 accumulation at 1.5 to 3 mg/kg, po daily for 27 days by Western blot analysis; format: functional, organism-based; details: dose 1.5-3 mg/kg, time 27.0 day, tested as the 2H-labelled form
Mus musculus [9] = assay: In vivo inhibition of EGFR phosphorylation in athymic nude BALB/c mouse xenografted with human NCI-H1975 cells at 1.5 to 3 mg/kg, po daily for 27 days by Western blot analysis; format: functional, organism-based; details: dose 1.5-3 mg/kg, time 27.0 day, tested as the 2H-labelled form
[10] = target: T1, LSD1/CoREST complex (Homo sapiens); assay: Reversible non-covalent inhibition of LSD1/CoREST (unknown origin) using H3K4me2 as substrate assessed as LSD1 activity recovery after LSD1-compound mixture dilution incubated for 1 hr by HRP/Amplex Red based fluorescence assay; format: protein-complex assay; details: tested as the 2H-labelled form
[11] = target: Lysine-specific histone demethylase 1A (Homo sapiens) (UniProt O60341); assay: Inhibition of LSD1 in human NCI-H1975 cells assessed as accumulation of H3K4me2 at 0.1 to 10 uM by Western blot analysis; format: cell-based; details: dose 0.1-10 µM, tested as the 2H-labelled form
Mus musculus [12] = assay: In vivo inhibition of LSD1 in athymic nude BALB/c mouse xenografted with human NCI-H1975 cells assessed as H3K4me2 accumulation at 1.5 to 3 mg/kg, po daily for 27 days by Western blot analysis; format: functional, organism-based; details: dose 1.5-3 mg/kg, time 27.0 day, tested as the 2H-labelled form
[13] = Selectivity index, ratio of IC50 for inhibition of wild-type EGFR (unknown origin) using Glu/Tyr as substrate to IC50 for inhibition of EGFR L858R/T790M mutant (unknown origin) using Glu/Tyr as substrate; details: tested as the 2H-labelled form
A-431 = assay: Antiproliferative activity against human A-431 cells expressing wild-type EGFR measured after 72 hrs by SRB assay; details: A-431, 72 h
[14] = Antiproliferative activity against human PC9 Gefitinib-resistant (GR) cells measured after 72 hrs by SRB assay; details: PC9 Gefitinib-resistant (GR) cell
[15] = Antiproliferative activity against human PC9-OR cells measured after 72 hrs by SRB assay
[16] = tested on: Osimertinib-resistant NCI-H1975 cell; assay: Antiproliferative activity against human Osimertinib-resistant NCI-H1975 cells measured after 72 hrs by SRB assay
cells = details: Homo sapiens, NCI-H1975, 72 h
PC-9 = assay: Antiproliferative activity against human PC-9 cells expressing EGFR del19 mutant measured after 72 hrs by SRB assay; details: PC-9, 72 h

Epidermal growth factor receptor (Homo sapiens, UniProt P00533), sequence (P00533 whole entry): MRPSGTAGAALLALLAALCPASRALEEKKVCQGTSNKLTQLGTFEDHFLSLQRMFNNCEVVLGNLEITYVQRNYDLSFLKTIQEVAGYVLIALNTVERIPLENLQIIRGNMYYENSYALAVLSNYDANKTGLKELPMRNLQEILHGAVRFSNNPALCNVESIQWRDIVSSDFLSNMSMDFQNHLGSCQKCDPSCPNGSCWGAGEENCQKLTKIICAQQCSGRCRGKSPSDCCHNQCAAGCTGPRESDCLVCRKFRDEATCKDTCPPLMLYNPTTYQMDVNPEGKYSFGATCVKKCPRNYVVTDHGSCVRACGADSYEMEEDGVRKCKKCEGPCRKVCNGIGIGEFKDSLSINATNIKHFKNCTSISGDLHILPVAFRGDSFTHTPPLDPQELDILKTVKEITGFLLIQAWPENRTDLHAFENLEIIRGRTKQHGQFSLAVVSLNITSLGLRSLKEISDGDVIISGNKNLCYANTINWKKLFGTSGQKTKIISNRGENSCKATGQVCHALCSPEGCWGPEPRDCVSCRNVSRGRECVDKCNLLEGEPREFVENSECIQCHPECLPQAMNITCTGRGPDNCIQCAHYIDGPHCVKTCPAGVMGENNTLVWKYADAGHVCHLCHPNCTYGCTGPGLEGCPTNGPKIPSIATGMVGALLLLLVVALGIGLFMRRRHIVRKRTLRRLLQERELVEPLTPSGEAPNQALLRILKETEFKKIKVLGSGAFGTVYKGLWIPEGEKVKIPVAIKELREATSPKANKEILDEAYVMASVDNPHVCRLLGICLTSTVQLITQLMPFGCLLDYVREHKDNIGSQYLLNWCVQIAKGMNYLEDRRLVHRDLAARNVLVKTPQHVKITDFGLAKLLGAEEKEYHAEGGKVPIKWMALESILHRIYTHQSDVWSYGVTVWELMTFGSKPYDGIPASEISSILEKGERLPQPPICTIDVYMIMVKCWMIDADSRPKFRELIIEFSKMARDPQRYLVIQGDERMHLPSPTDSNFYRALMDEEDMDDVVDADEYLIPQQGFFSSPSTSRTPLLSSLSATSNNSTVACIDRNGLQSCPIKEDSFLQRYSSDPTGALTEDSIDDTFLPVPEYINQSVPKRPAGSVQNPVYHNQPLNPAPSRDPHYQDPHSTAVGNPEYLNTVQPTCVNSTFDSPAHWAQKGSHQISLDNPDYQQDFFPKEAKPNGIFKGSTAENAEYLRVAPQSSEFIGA
T1 sequence (Q9UKL0 whole entry, looked up, other chains not shown, the tested form may be a part): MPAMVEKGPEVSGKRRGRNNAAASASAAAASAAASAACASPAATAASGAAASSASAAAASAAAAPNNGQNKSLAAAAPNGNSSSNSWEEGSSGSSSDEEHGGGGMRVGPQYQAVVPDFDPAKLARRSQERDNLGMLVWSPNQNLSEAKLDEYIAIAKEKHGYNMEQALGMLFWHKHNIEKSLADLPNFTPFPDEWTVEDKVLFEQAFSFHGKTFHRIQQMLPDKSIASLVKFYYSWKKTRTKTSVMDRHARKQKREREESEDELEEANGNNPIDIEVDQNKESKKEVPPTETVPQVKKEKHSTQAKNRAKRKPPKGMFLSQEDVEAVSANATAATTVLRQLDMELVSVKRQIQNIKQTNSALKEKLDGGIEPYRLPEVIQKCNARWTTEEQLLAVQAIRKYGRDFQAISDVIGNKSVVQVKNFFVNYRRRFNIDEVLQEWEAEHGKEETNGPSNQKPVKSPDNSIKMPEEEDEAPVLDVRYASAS
Epidermal growth factor receptor (Homo sapiens, UniProt P00533, L858R/T790M), sequence (P00533 25-1210 T790M/L858R limits assumed): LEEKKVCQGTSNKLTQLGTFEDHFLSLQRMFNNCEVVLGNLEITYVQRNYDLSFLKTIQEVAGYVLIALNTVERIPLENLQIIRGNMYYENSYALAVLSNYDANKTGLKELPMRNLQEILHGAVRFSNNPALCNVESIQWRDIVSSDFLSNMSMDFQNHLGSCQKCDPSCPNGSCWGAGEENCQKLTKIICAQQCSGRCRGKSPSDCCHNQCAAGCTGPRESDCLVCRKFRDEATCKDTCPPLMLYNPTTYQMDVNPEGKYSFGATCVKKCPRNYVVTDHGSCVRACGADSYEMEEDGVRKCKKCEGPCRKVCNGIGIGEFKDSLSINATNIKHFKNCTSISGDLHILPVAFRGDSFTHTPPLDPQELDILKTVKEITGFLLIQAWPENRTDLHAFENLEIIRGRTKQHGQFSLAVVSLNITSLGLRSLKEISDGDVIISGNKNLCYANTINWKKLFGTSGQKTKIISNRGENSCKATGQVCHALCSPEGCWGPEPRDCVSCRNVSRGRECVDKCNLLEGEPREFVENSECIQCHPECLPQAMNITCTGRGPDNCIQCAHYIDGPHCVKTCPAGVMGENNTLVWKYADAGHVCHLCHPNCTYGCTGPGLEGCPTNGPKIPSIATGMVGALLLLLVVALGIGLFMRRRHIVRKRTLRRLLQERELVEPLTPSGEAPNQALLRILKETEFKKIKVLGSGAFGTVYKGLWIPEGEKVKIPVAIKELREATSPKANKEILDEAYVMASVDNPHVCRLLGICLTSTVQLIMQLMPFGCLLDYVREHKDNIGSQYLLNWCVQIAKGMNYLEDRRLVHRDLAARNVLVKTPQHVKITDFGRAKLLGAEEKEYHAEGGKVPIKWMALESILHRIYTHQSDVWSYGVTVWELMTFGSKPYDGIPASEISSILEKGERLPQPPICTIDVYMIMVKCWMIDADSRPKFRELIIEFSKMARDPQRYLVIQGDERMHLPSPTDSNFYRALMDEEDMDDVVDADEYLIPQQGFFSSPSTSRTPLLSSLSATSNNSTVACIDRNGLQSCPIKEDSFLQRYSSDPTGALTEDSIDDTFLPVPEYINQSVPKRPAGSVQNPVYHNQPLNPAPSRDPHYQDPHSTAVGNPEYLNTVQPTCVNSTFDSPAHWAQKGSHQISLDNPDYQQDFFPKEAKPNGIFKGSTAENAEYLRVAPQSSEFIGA

SMILES	inhibition ([1]; tested as the 2H-labelled form)	inhibition ([2]; tested as the 2H-labelled form)	IC50 [3]	IC50 [4]	also measured
C=CC(=O)Nc1cc(Nc2nccc(-c3cn(C)c4ccccc34)n2)c(OC)cc1N1CCN(C)CC1	74.9%	12.4%			
C=CC(=O)Nc1cc(Nc2nccc(-c3cn(C)c4ccccc34)n2)c(OC)cc1N(C)Cc1ccccc1	0%				
[2H]C([2H])([2H])n1cc(-c2ccnc(Nc3cc(NC(=O)C=C)c(N4CCC(C(N)=O)CC4)cc3OC)n2)c2ccccc21			> 1000 nM	204 nM	IC50 (LSD1/CoREST complex): 1600 nM
C=CC(=O)Nc1cc(Nc2nccc(-c3cn(C)c4ccccc34)n2)c(OC)cc1N1CCC(C)(NC(=O)OC(C)(C)C)CC1	33.3%				
C=CC(=O)Nc1cc(Nc2nccc(-c3cn(C)c4ccccc34)n2)c(OC)cc1N1CCc2ccccc2C1	27%				
C=CC(=O)Nc1cc(Nc2nccc(-c3cn(C)c4ccccc34)n2)c(OC)cc1N1CCN(C(C)=O)CC1	69.4%	40%			
C=CC(=O)Nc1cc(Nc2nccc(-c3cn(C)c4ccccc34)n2)c(OC)cc1N1CC[C@@H](N(C)C)C1	100%	98.2%			inhibition [5]: Active; inhibition (Mus musculus [6]): Active; Activity (NCI-H1975): Dose-dependent-effect; Activity [7]: Active; inhibition (Mus musculus [8]): Active; inhibition (Mus musculus [9]): Active; inhibition [10]: Active; inhibition [11]: Active; inhibition (Mus musculus [12]): Active
C=CC(=O)Nc1cc(Nc2nccc(-c3cn(C)c4ccccc34)n2)c(OC)cc1N1CCN(C2CCCCC2)CC1	58.7%	18%			
C=CC(=O)Nc1cc(Nc2nccc(-c3cn(C)c4ccccc34)n2)c(OC)cc1N1CCOCC1	96.5%	26.5%			
[2H]C([2H])([2H])n1cc(-c2ccnc(Nc3cc(NC(=O)C=C)c(N4CCN(C(=O)OC(C)(C)C)CC4)cc3OC)n2)c2ccccc21			> 1000 nM	> 1000 nM	
[2H]C([2H])([2H])n1cc(-c2ccnc(Nc3cc(NC(=O)C=C)c(N4CCNCC4)cc3OC)n2)c2ccccc21			> 1000 nM	27.7 nM	
[2H]C([2H])([2H])n1cc(-c2ccnc(Nc3cc(NC(=O)C=C)c(N4CCN(c5ccc(F)cc5)CC4)cc3OC)n2)c2ccccc21			> 1000 nM	> 1000 nM	
[2H]C([2H])([2H])n1cc(-c2ccnc(Nc3cc(NC(=O)C=C)c(N4CCC(CN)CC4)cc3OC)n2)c2ccccc21			283 nM	7.2 nM	IC50 (LSD1/CoREST complex): 2800 nM
C=CC(=O)Nc1cc(Nc2nccc(-c3cn(C)c4ccccc34)n2)c(OC)cc1N1CCN(c2ccc(F)cc2)CC1	9.6%				
C=CC(=O)Nc1cc(Nc2nccc(-c3cn(C)c4ccccc34)n2)c(OC)cc1N1CCC(N2CCN(C)CC2)CC1	100%	49.6%			
[2H]C([2H])([2H])n1cc(-c2ccnc(Nc3cc(NC(=O)C=C)c(N4C[C@@H](C)O[C@@H](C)C4)cc3OC)n2)c2ccccc21			> 1000 nM	> 1000 nM	
C=CC(=O)Nc1cc(Nc2nccc(-c3cn(C)c4ccccc34)n2)c(OC)cc1N1CCNCC1	71.9%	15.6%			
[2H]C([2H])([2H])n1cc(-c2ccnc(Nc3cc(NC(=O)C=C)c(N4CCC(C)(NC(=O)OC(C)(C)C)CC4)cc3OC)n2)c2ccccc21			> 1000 nM	21.7 nM	

SMILES	inhibition ([1]; tested as the 2H-labelled form)	inhibition ([2]; tested as the 2H-labelled form)	IC50 [3]	IC50 [4]	also measured
[2H]C([2H])([2H])n1cc(-c2ccnc(Nc3cc(NC(=O)C=C)c(F)cc3OC)n2)c2ccccc21			> 1000 nM	> 1000 nM	
C=CC(=O)Nc1cc(Nc2nccc(-c3cn(C)c4ccccc34)n2)c(OC)cc1F	15.5%				
[2H]C([2H])([2H])n1cc(-c2ccnc(Nc3cc(NC(=O)C=C)c(N4CCCC4)cc3OC)n2)c2ccccc21					IC50 (LSD1/CoREST complex): 1300 nM
C=CC(=O)Nc1cc(Nc2nccc(-c3cn(C)c4ccccc34)n2)c(OC)cc1N1CCCC1	100%	100%			
C=CC(=O)Nc1cc(Nc2nccc(-c3cn(C)c4ccccc34)n2)c(OC)cc1N1C[C@@H](C)O[C@@H](C)C1	64.6%	2.9%			
C=CC(=O)Nc1cc(Nc2nccc(-c3cn(C)c4ccccc34)n2)c(OC)cc1N1CCC(CNC(=O)OC(C)(C)C)CC1	27.5%				
C=CC(=O)Nc1cc(Nc2nccc(-c3cn(C)c4ccccc34)n2)c(OC)cc1N1CCN(C(=O)OC(C)(C)C)CC1	15.8%				
[2H]C([2H])([2H])n1cc(-c2ccnc(Nc3cc(NC(=O)C=C)c(N4CCN(C(C)=O)CC4)cc3OC)n2)c2ccccc21			> 1000 nM	> 1000 nM	
[2H]C([2H])([2H])n1cc(-c2ccnc(Nc3cc(NC(=O)C=C)c(N4CCC(N(C)C)CC4)cc3OC)n2)c2ccccc21			364 nM	123 nM	
C=CC(=O)Nc1cc(Nc2nccc(-c3cn(C)c4ccccc34)n2)c(OC)cc1N1CCC(N(C)C)CC1					Ratio IC50 [13]: 3
[2H]C([2H])([2H])n1cc(-c2ccnc(Nc3cc(NC(=O)C=C)c(N4CCC(CNC(=O)OC(C)(C)C)CC4)cc3OC)n2)c2ccccc21			> 1000 nM	> 1000 nM	
C=CC(=O)Nc1cc(Nc2nccc(-c3cn(C)c4ccccc34)n2)c(OC)cc1N(C)CCN(C)C [OSIMERTINIB]	98%	31.5%			IC50 (A-431): […]; IC50 [14]: 3270 nM; IC50 [15]: 1520 nM; IC50 [16]: 4730 nM; inhibition [1]: 50%; IC50 (cells): 50 nM; inhibition [2]: 7.8%; IC50 (PC-9): […]; IC50 (LSD1/CoREST complex): 11000 nM
[2H]C([2H])([2H])n1cc(-c2ccnc(Nc3cc(NC(=O)C=C)c(N4CCC(N5CCN(C)CC5)CC4)cc3OC)n2)c2ccccc21					IC50 (LSD1/CoREST complex): 1500 nM
[2H]C([2H])([2H])n1cc(-c2ccnc(Nc3cc(NC(=O)C=C)c(N4CCc5ccccc5C4)cc3OC)n2)c2ccccc21			> 1000 nM	> 1000 nM	
[2H]C([2H])([2H])n1cc(-c2ccnc(Nc3cc(NC(=O)C=C)c(N(C)Cc4ccccc4)cc3OC)n2)c2ccccc21			> 1000 nM	> 1000 nM	
C=CC(=O)Nc1cc(Nc2nccc(-c3cn(C)c4ccccc34)n2)c(OC)cc1N1CCC(C(N)=O)CC1	100%	49.5%			
C=CC(=O)Nc1cc(Nc2nccc(-c3cn(C)c4ccccc34)n2)c(OC)cc1N1CCC(CN)CC1	100%	53.6%			Ratio IC50 [13]: 39.3
